# Measured values published in ChEMBL document CHEMBL5338777, “Small-Molecule Modulators Targeting Toll-like Receptors for Potential Anticancer Therapeutics” (J Med Chem, 2023).
# How the values were obtained:
# [1] = target: Toll-like receptor 5 (Homo sapiens, UniProt O60602); test: Antagonist activity at TLR5 (unknown origin)
# [2] = target: T1, Toll-like receptor 8 (Homo sapiens, UniProt Q9NR97); test: Antagonist activity at human TLR8
# T1 sequence (Q9NR97 whole entry): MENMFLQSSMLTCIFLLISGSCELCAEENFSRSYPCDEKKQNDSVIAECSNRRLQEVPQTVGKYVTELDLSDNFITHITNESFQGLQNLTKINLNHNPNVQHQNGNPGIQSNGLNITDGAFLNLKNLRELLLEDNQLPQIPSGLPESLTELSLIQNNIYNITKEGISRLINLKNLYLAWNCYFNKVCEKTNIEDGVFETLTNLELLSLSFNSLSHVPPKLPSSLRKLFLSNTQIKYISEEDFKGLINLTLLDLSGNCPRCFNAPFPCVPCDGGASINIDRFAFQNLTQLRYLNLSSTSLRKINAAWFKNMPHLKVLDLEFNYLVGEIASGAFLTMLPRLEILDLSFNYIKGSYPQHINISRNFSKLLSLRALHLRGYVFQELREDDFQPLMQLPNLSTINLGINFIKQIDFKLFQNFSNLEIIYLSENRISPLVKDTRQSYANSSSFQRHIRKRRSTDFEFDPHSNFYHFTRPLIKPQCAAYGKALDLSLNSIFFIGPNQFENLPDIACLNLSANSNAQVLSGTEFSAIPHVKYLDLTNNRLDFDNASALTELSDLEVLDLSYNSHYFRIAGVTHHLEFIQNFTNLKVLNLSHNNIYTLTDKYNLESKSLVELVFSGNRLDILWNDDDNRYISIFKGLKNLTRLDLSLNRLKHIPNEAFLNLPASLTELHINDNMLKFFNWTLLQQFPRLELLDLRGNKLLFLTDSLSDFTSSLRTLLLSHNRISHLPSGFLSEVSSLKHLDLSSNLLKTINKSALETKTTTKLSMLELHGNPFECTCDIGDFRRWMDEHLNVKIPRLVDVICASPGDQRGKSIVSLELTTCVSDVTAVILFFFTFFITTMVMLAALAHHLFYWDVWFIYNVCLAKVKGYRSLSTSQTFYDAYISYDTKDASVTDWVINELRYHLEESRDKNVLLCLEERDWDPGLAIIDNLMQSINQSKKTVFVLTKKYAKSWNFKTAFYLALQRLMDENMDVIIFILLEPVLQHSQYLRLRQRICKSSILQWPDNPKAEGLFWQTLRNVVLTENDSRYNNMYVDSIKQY
# [3] = target: T1, Toll-like receptor 8
# Description: (§1) Agonist activity at TLR8 (unknown origin)
# [4] = target: T1, Toll-like receptor 8; test: Binding affinity to human TLR8 expressed in HEK-Blue hTLR8 cells; type: cell-based
# [5] = target: T2, Toll-like receptor 4 (Mus musculus, UniProt Q9QUK6); test: Antagonist activity at TLR4 in mouse peritoneal macrophages assessed as inhibition of IL-6 production; type: cell-based, Peritoneal macrophage
# T2 sequence (Q9QUK6 whole entry): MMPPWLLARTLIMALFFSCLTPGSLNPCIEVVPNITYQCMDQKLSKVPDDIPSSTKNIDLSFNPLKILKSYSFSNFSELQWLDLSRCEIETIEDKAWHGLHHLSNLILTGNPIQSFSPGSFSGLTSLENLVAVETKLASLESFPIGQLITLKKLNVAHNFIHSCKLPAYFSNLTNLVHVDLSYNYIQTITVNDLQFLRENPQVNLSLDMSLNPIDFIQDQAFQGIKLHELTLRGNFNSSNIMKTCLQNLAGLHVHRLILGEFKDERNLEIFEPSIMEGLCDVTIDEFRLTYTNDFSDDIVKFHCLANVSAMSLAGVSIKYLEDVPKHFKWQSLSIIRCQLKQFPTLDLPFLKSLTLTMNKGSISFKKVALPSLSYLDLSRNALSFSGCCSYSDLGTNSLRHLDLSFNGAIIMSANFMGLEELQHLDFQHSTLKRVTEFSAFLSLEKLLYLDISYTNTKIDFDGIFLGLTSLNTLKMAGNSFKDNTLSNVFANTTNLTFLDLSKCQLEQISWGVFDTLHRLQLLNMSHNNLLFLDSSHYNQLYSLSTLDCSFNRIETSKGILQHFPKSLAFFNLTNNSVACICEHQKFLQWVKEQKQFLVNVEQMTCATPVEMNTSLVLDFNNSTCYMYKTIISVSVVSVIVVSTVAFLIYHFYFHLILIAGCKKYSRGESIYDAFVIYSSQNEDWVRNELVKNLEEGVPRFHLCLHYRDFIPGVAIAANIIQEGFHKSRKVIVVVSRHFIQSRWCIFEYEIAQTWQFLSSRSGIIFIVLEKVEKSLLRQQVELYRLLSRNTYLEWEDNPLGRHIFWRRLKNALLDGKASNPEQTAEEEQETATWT
# [6] = target: T2, Toll-like receptor 4; test: Antagonist activity at TLR4 in mouse peritoneal macrophages assessed as inhibition of NO production; type: cell-based, Peritoneal macrophage
# [7] = target: T2, Toll-like receptor 4; test: Antagonist activity at TLR4 in mouse peritoneal macrophages assessed as inhibition of TNF-alpha production; type: cell-based, Peritoneal macrophage
# [8] = target: T3, Toll-like receptor 7 (Homo sapiens, UniProt Q9NYK1)
# T3 sequence (Q9NYK1 whole entry): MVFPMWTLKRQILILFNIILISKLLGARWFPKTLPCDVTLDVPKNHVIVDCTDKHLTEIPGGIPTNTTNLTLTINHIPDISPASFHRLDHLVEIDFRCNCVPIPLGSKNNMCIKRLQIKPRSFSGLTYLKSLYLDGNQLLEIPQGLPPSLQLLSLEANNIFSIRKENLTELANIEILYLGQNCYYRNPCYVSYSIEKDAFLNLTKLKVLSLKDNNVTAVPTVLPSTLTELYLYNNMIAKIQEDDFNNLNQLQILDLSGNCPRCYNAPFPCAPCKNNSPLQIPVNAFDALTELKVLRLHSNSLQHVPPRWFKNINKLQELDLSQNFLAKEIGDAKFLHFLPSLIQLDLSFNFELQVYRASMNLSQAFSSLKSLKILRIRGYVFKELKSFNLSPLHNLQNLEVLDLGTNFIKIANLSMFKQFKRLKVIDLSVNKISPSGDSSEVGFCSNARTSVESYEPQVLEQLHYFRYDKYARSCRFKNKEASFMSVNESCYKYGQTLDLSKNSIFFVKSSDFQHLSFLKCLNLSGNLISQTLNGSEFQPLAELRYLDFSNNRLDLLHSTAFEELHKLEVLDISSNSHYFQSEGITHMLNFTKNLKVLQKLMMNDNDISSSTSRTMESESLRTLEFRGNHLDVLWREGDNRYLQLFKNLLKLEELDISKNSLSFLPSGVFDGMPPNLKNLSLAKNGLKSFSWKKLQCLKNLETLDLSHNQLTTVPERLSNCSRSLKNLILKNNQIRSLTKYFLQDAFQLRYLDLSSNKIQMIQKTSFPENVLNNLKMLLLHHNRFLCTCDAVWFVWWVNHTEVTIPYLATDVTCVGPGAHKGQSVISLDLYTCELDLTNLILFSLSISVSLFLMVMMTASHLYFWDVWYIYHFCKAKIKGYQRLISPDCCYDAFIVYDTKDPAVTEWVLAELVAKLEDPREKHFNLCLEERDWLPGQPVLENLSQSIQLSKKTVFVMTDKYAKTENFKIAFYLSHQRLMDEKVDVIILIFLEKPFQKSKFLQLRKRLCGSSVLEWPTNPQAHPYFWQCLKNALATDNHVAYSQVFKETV
# Description: (§2) Agonist activity at TLR7 (unknown origin)
# [9] = target: T1, Toll-like receptor 8; remark: listed apart in the source
# Description: as §1
# [10] = target: T3, Toll-like receptor 7; remark: listed apart in the source
# Description: as §2
# [11] = target: T4, TLR2/TLR6 (Homo sapiens, UniProt O60603+Q9Y2C9); test: Antagonist activity at TLR2/TLR6 in human THP-1 cells; type: cell-based
# T4 sequence (O60603 whole entry): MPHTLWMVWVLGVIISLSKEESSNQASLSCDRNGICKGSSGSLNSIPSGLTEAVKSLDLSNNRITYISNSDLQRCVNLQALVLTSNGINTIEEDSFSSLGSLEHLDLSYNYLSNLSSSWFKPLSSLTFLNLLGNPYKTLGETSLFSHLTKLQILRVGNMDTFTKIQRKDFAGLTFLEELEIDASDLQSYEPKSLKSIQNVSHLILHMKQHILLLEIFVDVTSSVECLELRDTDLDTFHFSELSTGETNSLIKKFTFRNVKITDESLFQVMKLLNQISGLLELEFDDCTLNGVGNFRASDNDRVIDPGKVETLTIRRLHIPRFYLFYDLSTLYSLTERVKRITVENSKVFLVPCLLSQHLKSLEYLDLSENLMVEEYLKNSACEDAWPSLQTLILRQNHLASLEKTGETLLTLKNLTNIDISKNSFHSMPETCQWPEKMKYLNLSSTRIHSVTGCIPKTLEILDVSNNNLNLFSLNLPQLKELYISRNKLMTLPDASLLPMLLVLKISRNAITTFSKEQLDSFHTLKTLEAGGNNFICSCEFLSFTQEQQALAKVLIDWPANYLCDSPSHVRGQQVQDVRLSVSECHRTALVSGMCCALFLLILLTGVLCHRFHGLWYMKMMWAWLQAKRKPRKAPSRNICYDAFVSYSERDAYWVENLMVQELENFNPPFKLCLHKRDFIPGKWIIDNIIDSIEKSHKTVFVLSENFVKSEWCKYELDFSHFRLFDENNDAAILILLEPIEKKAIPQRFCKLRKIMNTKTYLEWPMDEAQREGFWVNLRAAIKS
# T4 sequence (Q9Y2C9 whole entry): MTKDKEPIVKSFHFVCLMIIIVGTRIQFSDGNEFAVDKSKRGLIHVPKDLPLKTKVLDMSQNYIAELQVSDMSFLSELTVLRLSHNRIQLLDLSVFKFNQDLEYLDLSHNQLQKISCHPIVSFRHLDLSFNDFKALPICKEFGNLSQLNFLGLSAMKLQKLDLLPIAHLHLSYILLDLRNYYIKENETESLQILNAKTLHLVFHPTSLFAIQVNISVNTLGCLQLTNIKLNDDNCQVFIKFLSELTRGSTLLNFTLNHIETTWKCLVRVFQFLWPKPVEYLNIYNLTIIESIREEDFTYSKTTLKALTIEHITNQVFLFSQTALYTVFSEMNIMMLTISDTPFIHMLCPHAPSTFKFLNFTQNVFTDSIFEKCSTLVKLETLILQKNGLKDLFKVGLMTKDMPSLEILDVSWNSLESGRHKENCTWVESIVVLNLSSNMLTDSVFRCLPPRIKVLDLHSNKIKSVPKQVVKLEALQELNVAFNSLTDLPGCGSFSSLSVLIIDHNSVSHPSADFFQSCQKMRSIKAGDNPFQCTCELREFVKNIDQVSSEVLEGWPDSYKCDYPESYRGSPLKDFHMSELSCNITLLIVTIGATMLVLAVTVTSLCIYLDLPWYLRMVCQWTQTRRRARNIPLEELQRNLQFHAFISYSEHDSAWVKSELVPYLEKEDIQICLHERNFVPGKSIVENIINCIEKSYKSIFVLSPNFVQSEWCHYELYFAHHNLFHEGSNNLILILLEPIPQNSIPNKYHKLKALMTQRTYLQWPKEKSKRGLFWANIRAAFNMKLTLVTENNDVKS
# [12] = target: T5, Toll-like receptor 1/2 (Homo sapiens, UniProt O60603+Q15399); test: Antagonist activity at TLR1/TLR2 in HEK-Blue hTLR2 cells; type: cell-based
# T5 sequence (O60603 whole entry): as the sequence (O60603 whole entry) above
# T5 sequence (Q15399 whole entry): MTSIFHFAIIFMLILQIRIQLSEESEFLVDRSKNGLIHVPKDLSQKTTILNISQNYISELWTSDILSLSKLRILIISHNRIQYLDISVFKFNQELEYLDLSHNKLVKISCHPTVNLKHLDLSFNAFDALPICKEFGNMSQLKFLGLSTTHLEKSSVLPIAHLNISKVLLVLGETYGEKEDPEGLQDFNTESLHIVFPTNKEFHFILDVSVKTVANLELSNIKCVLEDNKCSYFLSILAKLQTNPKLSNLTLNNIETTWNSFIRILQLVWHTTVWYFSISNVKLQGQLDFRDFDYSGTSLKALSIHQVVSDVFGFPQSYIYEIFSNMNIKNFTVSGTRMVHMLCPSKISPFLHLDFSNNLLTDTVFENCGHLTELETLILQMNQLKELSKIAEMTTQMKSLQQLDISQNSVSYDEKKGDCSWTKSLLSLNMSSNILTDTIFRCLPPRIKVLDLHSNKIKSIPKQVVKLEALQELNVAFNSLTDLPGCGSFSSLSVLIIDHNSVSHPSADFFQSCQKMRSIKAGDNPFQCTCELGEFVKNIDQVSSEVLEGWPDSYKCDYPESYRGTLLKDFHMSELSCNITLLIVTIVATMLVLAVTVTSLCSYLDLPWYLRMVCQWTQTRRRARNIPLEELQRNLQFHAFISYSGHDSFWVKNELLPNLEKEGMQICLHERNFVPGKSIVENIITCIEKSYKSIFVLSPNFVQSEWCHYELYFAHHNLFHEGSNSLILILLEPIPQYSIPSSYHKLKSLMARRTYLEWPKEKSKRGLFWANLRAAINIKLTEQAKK
# [13] = target: Toll-like receptor 4 (Homo sapiens, UniProt O00206); test: Inhibition of TLR4 in human HEK293T cells co-expressing MD-2 receptor; type: cell-based
# Toll-like receptor 4 (Homo sapiens, UniProt O00206), sequence (O00206 whole entry): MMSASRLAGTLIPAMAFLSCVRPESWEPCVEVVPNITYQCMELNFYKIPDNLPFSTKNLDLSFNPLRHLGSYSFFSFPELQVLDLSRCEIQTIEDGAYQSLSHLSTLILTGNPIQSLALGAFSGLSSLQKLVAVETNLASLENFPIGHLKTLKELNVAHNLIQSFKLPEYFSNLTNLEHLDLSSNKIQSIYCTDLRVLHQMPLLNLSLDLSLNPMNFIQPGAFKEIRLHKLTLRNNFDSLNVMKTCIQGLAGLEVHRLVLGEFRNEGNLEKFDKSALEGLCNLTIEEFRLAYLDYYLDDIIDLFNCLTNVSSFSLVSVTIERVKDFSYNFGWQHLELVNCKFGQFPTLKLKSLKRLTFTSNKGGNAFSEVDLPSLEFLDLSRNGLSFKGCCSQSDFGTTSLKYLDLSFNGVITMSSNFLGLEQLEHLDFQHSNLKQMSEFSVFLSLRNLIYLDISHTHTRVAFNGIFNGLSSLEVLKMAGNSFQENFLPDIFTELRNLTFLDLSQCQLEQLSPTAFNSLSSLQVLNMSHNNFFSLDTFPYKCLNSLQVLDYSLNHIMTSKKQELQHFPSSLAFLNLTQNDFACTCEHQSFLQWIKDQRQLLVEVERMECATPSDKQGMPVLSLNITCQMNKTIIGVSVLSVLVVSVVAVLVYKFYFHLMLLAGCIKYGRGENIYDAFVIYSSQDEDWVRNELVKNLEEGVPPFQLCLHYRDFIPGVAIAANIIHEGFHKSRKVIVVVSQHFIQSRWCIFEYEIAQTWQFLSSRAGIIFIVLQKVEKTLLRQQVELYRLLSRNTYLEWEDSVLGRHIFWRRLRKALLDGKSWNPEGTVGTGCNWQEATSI
# [14] = target: T6, Toll-like receptor 3 (Homo sapiens, UniProt O15455); test: Antagonist activity at TLR3 (unknown origin)
# T6 sequence (O15455 whole entry): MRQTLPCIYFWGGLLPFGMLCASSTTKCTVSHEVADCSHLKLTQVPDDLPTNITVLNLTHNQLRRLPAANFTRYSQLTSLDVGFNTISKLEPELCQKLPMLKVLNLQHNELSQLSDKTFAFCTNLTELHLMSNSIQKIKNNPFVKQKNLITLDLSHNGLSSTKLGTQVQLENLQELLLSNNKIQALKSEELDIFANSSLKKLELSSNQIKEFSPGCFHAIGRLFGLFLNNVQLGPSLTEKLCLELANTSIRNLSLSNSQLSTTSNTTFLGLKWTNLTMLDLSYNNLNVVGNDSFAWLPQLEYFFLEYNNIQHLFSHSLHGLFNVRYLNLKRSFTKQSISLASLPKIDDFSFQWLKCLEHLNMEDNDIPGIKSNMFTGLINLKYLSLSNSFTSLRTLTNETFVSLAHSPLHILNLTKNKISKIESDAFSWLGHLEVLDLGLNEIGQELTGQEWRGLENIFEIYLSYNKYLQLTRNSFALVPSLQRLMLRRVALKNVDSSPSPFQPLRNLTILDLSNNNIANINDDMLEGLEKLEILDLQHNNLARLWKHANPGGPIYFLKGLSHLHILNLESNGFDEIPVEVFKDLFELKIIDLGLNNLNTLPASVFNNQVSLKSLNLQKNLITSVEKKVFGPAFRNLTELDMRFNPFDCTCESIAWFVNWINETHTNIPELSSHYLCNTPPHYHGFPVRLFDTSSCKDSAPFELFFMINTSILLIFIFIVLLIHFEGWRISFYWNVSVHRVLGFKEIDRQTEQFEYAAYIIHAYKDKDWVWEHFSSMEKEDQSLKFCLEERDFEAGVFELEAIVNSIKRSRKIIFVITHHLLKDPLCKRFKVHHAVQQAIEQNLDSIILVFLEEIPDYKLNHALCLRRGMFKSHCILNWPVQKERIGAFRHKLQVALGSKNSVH
# [15] = target: T5, Toll-like receptor 1/2; test: Antagonist activity at human TLR1/TLR2; type: protein-complex assay
# [16] = target: T4, TLR2/TLR6; test: Antagonist activity at human TLR2/TLR6; type: protein-complex assay
# [17] = target: T5, Toll-like receptor 1/2
# Description: Agonist activity at TLR1/TLR2 in human THP-1 cells
# [18] = target: T5, Toll-like receptor 1/2; test: Antagonist activity at TLR1/TLR2 (unknown origin); type: protein-complex assay
# [19] = Antagonist activity at TLR2/TLR4 (unknown origin); design: species or system Homo sapiens
# Toll-like receptor 5, sequence (O60602 whole entry): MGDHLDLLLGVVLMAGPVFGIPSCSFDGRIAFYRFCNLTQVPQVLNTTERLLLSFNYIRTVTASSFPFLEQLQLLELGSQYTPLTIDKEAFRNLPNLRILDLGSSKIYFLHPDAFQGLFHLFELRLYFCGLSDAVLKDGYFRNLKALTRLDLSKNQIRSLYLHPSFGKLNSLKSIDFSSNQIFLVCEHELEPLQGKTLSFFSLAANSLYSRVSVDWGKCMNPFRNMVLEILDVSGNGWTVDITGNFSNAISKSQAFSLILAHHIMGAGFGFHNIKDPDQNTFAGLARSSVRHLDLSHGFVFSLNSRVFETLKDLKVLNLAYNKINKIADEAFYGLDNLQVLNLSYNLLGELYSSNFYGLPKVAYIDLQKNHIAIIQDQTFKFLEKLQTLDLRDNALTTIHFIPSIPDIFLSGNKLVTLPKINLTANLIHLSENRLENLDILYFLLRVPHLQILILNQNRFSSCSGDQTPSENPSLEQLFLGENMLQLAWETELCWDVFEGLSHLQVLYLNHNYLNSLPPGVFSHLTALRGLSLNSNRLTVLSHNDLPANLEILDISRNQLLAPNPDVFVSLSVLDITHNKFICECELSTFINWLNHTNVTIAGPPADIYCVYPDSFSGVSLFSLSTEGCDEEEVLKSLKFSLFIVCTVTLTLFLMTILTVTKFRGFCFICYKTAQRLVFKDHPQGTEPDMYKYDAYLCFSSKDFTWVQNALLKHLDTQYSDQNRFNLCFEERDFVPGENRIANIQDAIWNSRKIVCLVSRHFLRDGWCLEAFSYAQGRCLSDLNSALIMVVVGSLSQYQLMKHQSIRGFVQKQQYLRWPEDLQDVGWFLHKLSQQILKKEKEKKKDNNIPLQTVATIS
compound,measurement,setting,value
c1cnc2sc3c(Sc4nnc(-c5ccncc5)o4)ncnc3c2c1,IC50,[1],3380 nM
COc1ccc2c(-c3ccc(OCCCCO)c(C)c3)ccnc2c1,IC50,[2],0.1 nM
CCCN(CCC)C(=O)C1=Cc2ccc(-c3ccc(C(=O)N4CCCC4)cc3)cc2N=C(N)C1 [MOTOLIMOD],EC50,[3],~100 nM
Cc1cccc(-c2ccnc3c(C(N)=O)cnn23)c1,Kd,[4],220 nM
CCOC(=O)C1=CCCC[C@H]1S(=O)(=O)Nc1ccc(F)cc1Cl [RESATORVID],IC50,[5],1.3 nM
same,IC50,[6],1.8 nM
same,IC50,[7],1.9 nM
COCCOc1nc(N)c2[nH]c(=O)n(Cc3ccccc3)c2n1,EC50,[8],140 nM
CCCN(CCC)C(=O)C1=Cc2ccc(C(=O)N3CC4(C3)CN(c3ccc(C)cc3)C4)cc2N=C(N)C1,EC50,[8],> 100 nM
CCCCn1cc2c(n1)c(N)nc1ccccc12,EC50,[9],56 nM
same,EC50,[10],190 nM
COc1cccc(/C=N/c2cccc(C(=O)O)c2C)c1O,IC50,[11],37600 nM
same,IC50,[12],19700 nM
c1ccc(-n2c(Sc3ncnc4c3sc3ncccc34)nnc2-c2ccncc2)cc1,IC50,[1],3130 nM
COc1cccc(C=O)c1O,IC50,[11],37200 nM
same,IC50,[12],24200 nM
CCCCCCCCCC(CCCCCCCCC)CC(=O)OC[C@H]1O[C@H](O[C@H]2O[C@H](COC(=O)CC(CCCCCCCCC)CCCCCCCCC)[C@@H](O)[C@H](O)[C@H]2O)[C@H](O)[C@@H](O)[C@@H]1O [VIZANTIN],IC50,[13],53 nM
CCCN(CCC)C(=O)C1=Cc2ccc(C(=O)NC(c3ccccc3)c3ccccc3)cc2N=C(N)C1,EC50,[8],> 100 nM
O=C(N[C@H](Cc1ccccc1)C(=O)O)c1cc2c(s1)CCCCC2,IC50,[14],154000 nM
CCOC(=O)c1ccc(CC(=O)c2ccc(O)c(O)c2O)o1,IC50,[15],1700 nM
same,IC50,[16],5700 nM
COc1ccc2c(-c3cnc(OCc4ccccc4)c(C)c3)ccnc2c1,IC50,[2],0.8 nM
CCCN(CCC)C(=O)C1=Cc2ccc(-c3cccc(C(=O)CC)c3)cc2N=C(N)C1,EC50,[3],8 nM
same,EC50,[8],16 nM
CCc1nc2c(N)nc3ccccc3c2n1CCCCNS(C)(=O)=O [CPG-52852],EC50,[8],~3000 nM
CCOC(=O)c1c(NC(=O)N2CCN(C)CC2)sc2c1CCC2,EC50,[17],550 nM
CCCCCCOC(=O)c1cc(O)c(=O)c2c(O)c(O)c(OC)cc2c1,IC50,[15],9100 nM
same,IC50,[18],580 nM
same,IC50,[16],5600 nM
O=C(N[C@H](Cc1ccccc1)C(=O)O)c1sc2cc(F)ccc2c1Cl,IC50,[14],3440 nM
Cc1cc(C)c2c(n1)sc1c(Sc3nnc(-c4ccncc4)o3)ncnc12,IC50,[1],50500 nM
CCCCc1nc2c(N)nc3ccccc3c2o1,EC50,[9],180 nM
O=c1occ2c3c(ccc(O)c13)Oc1ccc(O)cc1-2,IC50,[19],~10000 nM
